Laboratory results taken from US8575135B2 (Gilead Sciences, Inc., priority 2011, dated 2013).
Where two headings read alike, the source gives them in different places.

How the values were obtained:
Assay in all cases: microbe, parasite or virus in culture
[1] = test system: stable HCV 2a JFH-1 Rluc replicon cells (L31 present in NS5A); type: cell-based; conditions: Hepatitis C virus
[2] = test system: stable HCV 1b RLuc replicon cells (genotype 1b Con1 replicon); type: cell-based; conditions: Hepatitis C virus, read-out: 1b (nM)
[3] = test system: stable HCV 1a RLuc replicon cells (genotype 1a H77 replicon); type: cell-based; conditions: Hepatitis C virus
[4] = test system: NS5A chimeric genotype 2a JFH-1 replicon with genotype 2b MD2b-1 strain NS5A gene (M31 present); type: cell-based, HCV; conditions: Hepatitis C virus
In short: (§1)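 Genotype 3a (S52) and 4a (ED43) NS5A chimeras use 1b Con1 Pi-RLuc replicons, transfected transiently; 2b MD2b-1 NS5A chimera (M31) uses 2a JFH-1 RLuc-Neo replicon, transient or stable.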

[5] = test system: NS5A chimeric genotype 2a JFH-1 replicon with genotype 2a J6 strain NS5A gene (M31 present); type: cell-based, HCV; conditions: Hepatitis C virus
[6] = test system: 1a Pi-Rluc replicon with Q30R in genotype 1a NS5A; type: cell-based, HCV; conditions: Hepatitis C virus
In short: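 Q30R introduced by site-directed mutagenesis into genotype 1a Pi-RLuc replicon; RNA transiently transfected into Huh-7-derived cured-51 cells.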

[7] = test system: NS5A chimeric genotype 1b Con1 replicon with genotype 4a ED43 strain NS5A gene; type: cell-based, HCV; conditions: Hepatitis C virus
[8] = test system: NS5A chimeric genotype 1b Con1 replicon with genotype 3a S52 strain NS5A gene; type: cell-based, HCV; conditions: Hepatitis C virus
In short: as §1

Row | Structure (SMILES) | EC50 ([1]; read-out: 2a JFH) | EC50 ([1]; read-out: 2a JFH (nM)) | EC50 [2] | EC50 ([3]; read-out: 1a) | EC50 ([3]; read-out: 1a (nM)) | EC50 ([4]; read-out: 2b) | EC50 ([4]; read-out: 2b (t) (nM)) | EC50 ([5]; read-out: 2a J6) | EC50 ([5]; read-out: 2a Jb (t) (nM)) | EC50 ([6]; read-out: 1a Q30R) | EC50 ([6]; read-out: 1a Q30R (nM)) | EC50 ([7]; read-out: 4a) | EC50 ([7]; read-out: 4a (s) (nM)) | EC50 ([7]; read-out: 4a (t) (nM)) | EC50 ([8]; read-out: 3a) | EC50 ([8]; read-out: 3a (nM)) | EC50 ([4]; read-out: 2b (s) (nM)) | EC50 ([5]; read-out: 2a J6 (s) (nM))
1 | CCC(C)[C@H](NC(=O)OC)C(=O)N1C[C@@H](C)CC1c1ncc(-c2ccc3c(c2)COc2cc4c(ccc5nc([C@@H]6CC(COC)CN6C(=O)[C@@H](NC(=O)OC)C(C)C)[nH]c54)cc2-3)[nH]1 (stereo in doubt) [Example QC, Methyl {(2S)-1-[(2S,4S)-2-(9-{2-[(2S,4S)-1-{(2S,3R)-2-[(methoxycarbonyl)amino]-3-methylpentanoyl}-4-methylpyrrolidin-2-yl]-1H-imidazol-5-yl}-1,11-dihydroisochromeno[4′,3′:6,7]naphtho[1,2-d]imidazol-2-yl)-4-(methoxymethyl)pyrrolidin-1-yl]-3-methyl-1-oxobutan-2-yl}carbamate] | < 1 nM | 0.008 nM | 0.014 nM | < 1 nM | 0.012 nM | < 1 nM | 0.317 nM | < 1 nM | 0.157 nM |  |  |  |  |  |  |  |  | 
2 | CCC(C)C(NC(=O)OC)C(=O)N1CC(COC)C[C@H]1c1nc2ccc3cc4c(cc3c2[nH]1)OCc1cc(-c2cnc(C3C[C@H](C)CN3C(=O)[C@@H](NC(=O)OC)C(C)CC)[nH]2)ccc1-4 (stereo in doubt) [Example QE, Methyl {(3R)-1-[(2S,4S)-2-(9-{2-[(2S,4S)-1-{(2S,3R)-2-[(methoxycarbonyl)amino]-3-methylpentanoyl}-4-methylpyrrolidin-2-yl]-1H-imidazol-5-yl}-1,11-dihydroisochromeno[4′,3′:6,7]naphtho[1,2-d]imidazol-2-yl)-4-(methoxymethyl)pyrrolidin-1-yl]-3-methyl-1-oxopentan-2-yl}carbamate] | < 1 nM | 0.011 nM | 0.015 nM | < 1 nM | 0.013 nM | < 1 nM | 0.563 nM | < 1 nM | 0.291 nM |  |  |  |  |  |  |  |  | 
3 | COC[C@H]1C[C@@H](c2nc3ccc4cc5c(cc4c3[nH]2)OCc2cc(-c3cnc([C@@H]4CCCN4C(=O)[C@@H](NC(=O)OC)C(C)C)[nH]3)ccc2-5)N(C(=O)[C@@H](NC(=O)OC)C(C)C)C1 [Compound 495] | < 1 nM | 0.008 nM |  | < 1 nM | 0.021 nM | < 1 nM | 0.135 nM | < 1 nM | 0.28 nM | < 1 nM | 0.201 nM | < 1 nM | 0.014 nM | 0.014 nM | < 1 nM | 0.024 nM | 0.541 nM | 1.02 nM
4 | COC[C@H]1C[C@@H](c2ncc(-c3ccc4c(c3)COc3cc5c(ccc6nc([C@@H]7C[C@H](COC)CN7C(=O)[C@@H](NC(=O)OC)C(C)C)[nH]c65)cc3-4)[nH]2)N(C(=O)[C@@H](NC(=O)OC)C(C)C)C1 [Example OI, Methyl {(2S)-1-[(2S,4S)-2-(5-{2-[(2S,4S)-1-{(2S)-2-[(methoxycarbonyl)amino]-3-methylbutanoyl}-4-(methoxymethyl)pyrrolidin-2-yl]-1,11-dihydroisochromeno[4′,3′:6,7]naphtho[1,2-d]imidazol-9-yl}-1H-imidazol-2-yl)-4-(methoxymethyl)pyrrolidin-1-yl]-3-methyl-1-oxobutan-2-yl}carbamate] | < 1 nM | 0.01 nM |  | < 1 nM | 0.024 nM | < 1 nM | 0.178 nM | < 1 nM | 0.061 nM | < 1 nM | 0.086 nM | < 1 nM | 0.007 nM | 0.036 nM | < 1 nM | 0.206 nM | 0.629 nM | 0.326 nM
